US11000537B2, “Composition comprising novel ginsenoside” (AMOREPACIFIC CORPORATION, priority 2018, dated 2021)

Assays:
Assay type in all cases: cell-based
pancreatic lipase = pancreatic lipase activity inhibition (Pancreatic Lipase Activity Assay Kit)
Method: The hepatocyte cell line HepG2 purchased from the International Center for Biological Resources (ATCC) were placed in Dulbecco's Modified Eagle's Medium (Sigma) to which 10% fetal bovine serum (Hyclone) and 1% penicillin/streptomycin (Sigma) were added, and cultured in a 5% CO2 incubator. As a positive control for the cells, Xenical (Sigma), which are used as pancreatic lipase inhibitors and anti-obesity therapeutic agents, and seven types of ginsenosides (GS #01-GS #06, GS #10; 10 μM each) extracted from Ginseng seed were treated for 1 hour. In addition, Pancreatic Lipase Activity Assay Kit (Abcam) was used to observe the inhibition of each lipase activity.

SREBP1a = SREBP1a gene expression in HepG2 (qPCR); details: 10 μM, 24 hours, FIG. 30
Method: The hepatocyte cell line HepG2 purchased from the International Center for Biological Resources (ATCC) were placed in Dulbecco's Modified Eagle's Medium (Sigma) to which 10% fetal bovine serum (Hyclone) and 1% penicillin/streptomycin (Sigma) were added, and cultured in a 5% CO2 incubator. As a positive control, Simvastatin (Sigma Aldrich; St. Louis, Mo.), which is known as a lipid lowering agent of the HMG-CoA reductase inhibitor family and reduces cholesterol production in the blood, was used. For the experiment, seven types of ginsenoside (GS #01-GS #06, GS #10; 10 μM each) extracted from Ginseng seeds were treated for 24 hours, and the cells were collected. RNA was extracted using Trizol™ reagent (Thermo Fisher Scientific) and cDNA was synthesized using RevertAid™ 1st strand cDNA synthesis kit (Thermo Fisher Scientific). Bio-Rad's CFX96 real-time quantitative PCR (qPCR) instrument was used to observe the expression of HMG-CoA (3-hydroxy-3-methyl-glutaryl-coenzyme A) reductase, a key gene for cholesterol synthesis. In the same way, LDL (low-density lipoprotein) was absorbed into cells, and the expression of LDL receptor (LDLR), which serves to lower blood cholesterol levels, was observed.
LDLR is controlled by the SREBP1a gene. […]

[1] = test system: human umbilical vein endothelial cells (HUVECs); test: survival rate of vascular endothelial cells (MTT)
Method: In this experiment, it was confirmed whether the novel ginsenoside GS #10 of an embodiment of the present disclosure can increase the survival rate of vascular endothelial cells. Specifically, human umbilical vein endothelial cells (HUVECs) were purchased from the International Center for Biological Resources (ATCC) and cultured, and then the novel ginsenoside GS #10 was treated at a concentration of 1-10 μg/ml and MTT(3-(4,5-dimethylthiazol-2-yl)-2,5-diphenyltetrazolium bromide) analysis was performed to observe cell death.

Structure (SMILES): CC1(C)C(=O)CC[C@@]2(C)C1[C@@H](O[C@H]1OC(CO)[C@H](O)C(O)C1O[C@H]1OC(CO)[C@H](O)C(O)C1O)C[C@]1(C)C2C[C@@H](O)C2C([C@]3(C)CC[C@H](C(C)(C)O)O3)CC[C@]21C (stereo partly drawn) [GS #10, (20S,24R)-6-O-β-D-glucopyranosyl(1→2)-β-D-glucopyranoside-dammar-3-one-20,24-epoxy-6a,12b,25-triol]
- lipase activity inhibitory effect relative to that of the conventional ginsenoside (pancreatic lipase; 10 μM, 1 hour, FIG. 22): ≥ 2 times
- pancreatic lipase activity inhibitory effect (pancreatic lipase; 10 μM, 1 hour, FIG. 22): the best
- pancreatic lipase activity inhibition (pancreatic lipase; 1, 10 μM, compared with Rg1, Rg3, Rb1, FIG. 27): far superior in lipid metabolism inhibitory effect
- expression of SREBP1a (SREBP1a): did not inhibit the expression of SREBP1a but rather tended to increase the expression thereof
- survival rate-increasing effect of vascular endothelial cells ([1]; 10 μg/ml, MTT, compared with GS #01-GS #06, FIG. 45): highest survival rate-increasing effect of vascular endothelial cells
- increased survival rate of vascular endothelial cells (HUVEC) ([1]; 10 μg/ml, compared with Rg1, Rg3, Rb1, FIG. 47): far superior
- survival rate of HUVEC ([1]; 1-10 μg/ml, MTT, FIG. 44): increase the survival rate of HUVEC regardless of the concentration
